Holding throughout (test): biochemical
The target of one experiment is S. aureus DNA gyrase (Staphylococcus aureus, UniProt P0A0K8+P20831). The conditions noted are these: for IC50: IC50 DNA gyrase; for inhibition at 50 µM: read-out: % inhibition DNA gyrase.
For experiment [1], the target named is S. aureus Topoisomerase IV (Staphylococcus aureus, UniProt P0C1S7+P0C1U9). The note with it: for IC50: IC50 Topo IV; for inhibition at 50 µM: read-out: % inhibition Topo IV.
For another experiment, the target named is E. coli DNA gyrase (Escherichia coli, UniProt P0AES4+P0AES6). The conditions noted are these: for IC50: IC50 DNA gyrase; for inhibition at 50 µM: read-out: % inhibition DNA gyrase.
Another experiment concerns the target E. coli Topoisomerase IV (Escherichia coli, UniProt P0AFI2+P20083). The note with it: for IC50: IC50 Topo IV; for inhibition at 50 µM: read-out: % inhibition Topo IV.
The mark [2] stands for this setting: S. aureus, compound conc. 50 μM, percent of inhibition versus positive control, n/a = not active.

What is called IC50 is the concentration needed to halve the response being measured. Read a high IC50 as weaker potency. By inhibition is commonly meant the percentage by which the read-out fell short of the control.

Read-outs that look alike come from different tables or passages of the source.

S. aureus Topoisomerase IV, sequence (P0C1U9 whole entry): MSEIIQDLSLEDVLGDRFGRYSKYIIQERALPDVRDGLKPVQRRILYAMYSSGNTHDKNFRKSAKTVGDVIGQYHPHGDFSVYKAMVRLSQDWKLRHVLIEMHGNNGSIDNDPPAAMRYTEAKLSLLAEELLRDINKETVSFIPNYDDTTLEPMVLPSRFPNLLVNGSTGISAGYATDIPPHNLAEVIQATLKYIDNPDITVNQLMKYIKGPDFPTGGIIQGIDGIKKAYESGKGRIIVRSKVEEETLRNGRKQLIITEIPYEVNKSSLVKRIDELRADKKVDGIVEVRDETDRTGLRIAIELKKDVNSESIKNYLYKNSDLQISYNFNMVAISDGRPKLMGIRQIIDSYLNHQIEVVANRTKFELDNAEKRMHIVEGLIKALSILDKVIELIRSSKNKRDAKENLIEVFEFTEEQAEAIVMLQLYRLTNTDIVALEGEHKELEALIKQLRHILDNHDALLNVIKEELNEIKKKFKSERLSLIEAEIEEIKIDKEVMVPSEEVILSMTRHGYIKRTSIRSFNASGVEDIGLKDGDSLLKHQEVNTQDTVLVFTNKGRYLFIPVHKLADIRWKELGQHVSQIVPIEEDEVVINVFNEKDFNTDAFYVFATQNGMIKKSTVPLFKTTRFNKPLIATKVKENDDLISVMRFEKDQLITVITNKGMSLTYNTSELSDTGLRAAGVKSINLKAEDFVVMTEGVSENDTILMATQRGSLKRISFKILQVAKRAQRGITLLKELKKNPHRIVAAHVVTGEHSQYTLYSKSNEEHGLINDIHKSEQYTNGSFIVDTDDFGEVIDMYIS
S. aureus Topoisomerase IV, sequence (P0C1S7 whole entry): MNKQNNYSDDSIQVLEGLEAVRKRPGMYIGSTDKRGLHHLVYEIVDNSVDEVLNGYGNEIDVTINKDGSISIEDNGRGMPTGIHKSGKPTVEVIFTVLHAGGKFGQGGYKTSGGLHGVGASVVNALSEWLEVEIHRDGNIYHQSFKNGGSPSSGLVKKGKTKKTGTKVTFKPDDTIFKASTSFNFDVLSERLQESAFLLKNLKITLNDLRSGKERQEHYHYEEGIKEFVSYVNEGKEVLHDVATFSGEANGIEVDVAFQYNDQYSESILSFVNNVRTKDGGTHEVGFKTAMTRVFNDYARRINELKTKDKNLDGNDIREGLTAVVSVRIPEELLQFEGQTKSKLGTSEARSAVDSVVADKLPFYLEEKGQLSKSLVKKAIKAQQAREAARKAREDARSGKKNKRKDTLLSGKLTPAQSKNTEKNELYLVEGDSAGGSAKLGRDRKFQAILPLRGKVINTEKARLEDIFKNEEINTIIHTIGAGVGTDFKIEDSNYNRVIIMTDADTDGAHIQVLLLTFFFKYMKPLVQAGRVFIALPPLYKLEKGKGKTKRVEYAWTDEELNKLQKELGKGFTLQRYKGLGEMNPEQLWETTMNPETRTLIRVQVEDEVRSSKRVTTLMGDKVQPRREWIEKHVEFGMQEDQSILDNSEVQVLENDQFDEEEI
E. coli Topoisomerase IV, sequence (P0AFI2 whole entry): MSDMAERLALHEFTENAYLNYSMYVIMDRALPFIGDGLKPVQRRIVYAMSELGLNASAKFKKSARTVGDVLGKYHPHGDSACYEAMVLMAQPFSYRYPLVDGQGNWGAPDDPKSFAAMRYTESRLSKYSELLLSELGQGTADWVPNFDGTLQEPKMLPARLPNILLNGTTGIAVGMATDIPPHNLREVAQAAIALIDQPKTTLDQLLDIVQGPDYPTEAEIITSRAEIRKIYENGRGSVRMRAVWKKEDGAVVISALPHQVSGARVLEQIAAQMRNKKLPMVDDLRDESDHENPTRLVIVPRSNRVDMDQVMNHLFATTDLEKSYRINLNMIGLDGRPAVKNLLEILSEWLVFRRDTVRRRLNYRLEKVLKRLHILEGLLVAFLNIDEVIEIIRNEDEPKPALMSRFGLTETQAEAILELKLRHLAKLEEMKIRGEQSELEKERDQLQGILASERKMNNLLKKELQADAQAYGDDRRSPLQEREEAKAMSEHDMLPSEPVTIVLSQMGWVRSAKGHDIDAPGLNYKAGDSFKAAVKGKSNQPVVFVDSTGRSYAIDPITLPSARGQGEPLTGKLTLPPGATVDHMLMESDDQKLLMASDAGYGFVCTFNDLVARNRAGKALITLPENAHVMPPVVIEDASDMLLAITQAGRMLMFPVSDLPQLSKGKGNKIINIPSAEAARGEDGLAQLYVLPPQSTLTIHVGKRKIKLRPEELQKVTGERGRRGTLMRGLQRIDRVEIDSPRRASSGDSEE
E. coli Topoisomerase IV, sequence (P20083 whole entry): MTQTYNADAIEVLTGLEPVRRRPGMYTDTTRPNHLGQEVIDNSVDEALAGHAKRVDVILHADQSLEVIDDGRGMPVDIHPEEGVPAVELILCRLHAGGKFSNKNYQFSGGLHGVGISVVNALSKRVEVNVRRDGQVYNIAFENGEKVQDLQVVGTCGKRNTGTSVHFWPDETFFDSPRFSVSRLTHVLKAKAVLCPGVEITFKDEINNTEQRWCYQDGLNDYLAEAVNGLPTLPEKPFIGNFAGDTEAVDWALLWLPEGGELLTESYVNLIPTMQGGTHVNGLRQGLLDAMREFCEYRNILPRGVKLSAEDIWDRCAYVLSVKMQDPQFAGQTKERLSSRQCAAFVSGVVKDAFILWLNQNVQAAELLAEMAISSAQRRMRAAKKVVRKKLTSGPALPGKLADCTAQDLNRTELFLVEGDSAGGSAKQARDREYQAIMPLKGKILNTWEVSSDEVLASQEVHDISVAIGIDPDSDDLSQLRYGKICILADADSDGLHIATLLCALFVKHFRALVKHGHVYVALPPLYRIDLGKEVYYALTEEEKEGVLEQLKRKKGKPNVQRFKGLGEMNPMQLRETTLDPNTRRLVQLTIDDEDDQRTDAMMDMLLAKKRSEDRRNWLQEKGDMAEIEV
E. coli DNA gyrase, sequence (P0AES4 whole entry, one chain of several): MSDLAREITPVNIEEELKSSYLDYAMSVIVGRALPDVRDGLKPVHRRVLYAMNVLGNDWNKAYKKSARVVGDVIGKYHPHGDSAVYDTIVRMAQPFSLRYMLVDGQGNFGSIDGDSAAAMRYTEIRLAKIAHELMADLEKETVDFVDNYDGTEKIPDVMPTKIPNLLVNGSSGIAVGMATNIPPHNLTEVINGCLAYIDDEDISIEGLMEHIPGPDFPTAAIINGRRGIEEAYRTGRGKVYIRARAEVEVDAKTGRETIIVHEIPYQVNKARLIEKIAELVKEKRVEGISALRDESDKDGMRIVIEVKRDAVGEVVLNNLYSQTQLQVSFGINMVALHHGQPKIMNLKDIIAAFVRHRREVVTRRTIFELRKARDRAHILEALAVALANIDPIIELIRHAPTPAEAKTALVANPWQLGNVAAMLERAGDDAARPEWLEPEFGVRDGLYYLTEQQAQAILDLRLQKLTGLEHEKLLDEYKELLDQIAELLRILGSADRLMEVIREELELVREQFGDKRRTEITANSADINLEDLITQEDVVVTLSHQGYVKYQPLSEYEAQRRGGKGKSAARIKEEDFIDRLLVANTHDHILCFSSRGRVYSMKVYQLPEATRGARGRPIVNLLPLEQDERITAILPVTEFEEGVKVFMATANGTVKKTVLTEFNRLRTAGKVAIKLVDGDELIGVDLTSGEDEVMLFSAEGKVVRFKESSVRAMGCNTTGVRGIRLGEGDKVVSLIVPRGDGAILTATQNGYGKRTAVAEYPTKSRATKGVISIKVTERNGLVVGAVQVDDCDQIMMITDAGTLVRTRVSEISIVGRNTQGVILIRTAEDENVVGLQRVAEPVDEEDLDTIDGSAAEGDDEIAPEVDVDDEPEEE

As to `O=c1oc2ccccc2c2[nH]c(CNCC3CN(c4nccc5ccc(F)cc45)CCO3)cc12` (single isomer, unassigned) [Compound 182, 2-[({[4-(7-fluoroisoquinolin-1-yl)morpholin-2-yl]methyl}amino)methyl][1]benzopyrano[4,3-b]pyrrol-4(1H)-one], the IC50 against S. aureus DNA gyrase was 640 nM; in experiment [1], 740 nM; against E. coli DNA gyrase, 740 nM; against E. coli Topoisomerase IV it was 3210 nM. Besides, the inhibition at 50 µM stood at 92% at S. aureus DNA gyrase and 61% at E. coli DNA gyrase. The “% inhibition Topo IV” value is reported as 50a % in experiment [1] (setting [2]) and 52% at E. coli Topoisomerase IV.

`O=c1oc2ccc(F)cc2c2[nH]c(CN[C@H]3CC[C@H](n4c(=O)cnc5ncc(F)cc54)CC3)cc12` [Compound 209, 8-fluoro-2-({[trans-4-(7-fluoro-2-oxopyrido[2,3-b]pyrazin-1(2H)-yl)cyclohexyl]amino}methyl)[1]benzopyrano[4,3-b]pyrrol-4(1H)-one]: the IC50 at S. aureus DNA gyrase was found to be 300 nM; in experiment [1] it was 220 nM; against E. coli DNA gyrase, 130 nM; against E. coli Topoisomerase IV it was 1000 nM. The inhibition at 50 µM (at S. aureus DNA gyrase; in experiment [1] (setting [2]); on E. coli DNA gyrase; at E. coli Topoisomerase IV) was 100% throughout.

As to `O=c1oc2ccc(F)cc2c2[nH]c(CN[C@H]3CC[C@H](n4c(=O)ccc5ccc(F)cc54)CC3)cc12` [Compound 216, 8-fluoro-2-({[trans-4-(7-fluoro-2-oxoquinolin-1(2H)-yl)cyclohexyl]amino}methyl)[1]benzopyrano[4,3-b]pyrrol-4(1H)-one], the IC50 was 310 nM against S. aureus DNA gyrase, 290 nM in experiment [1], 130 nM at E. coli DNA gyrase and 250 nM against E. coli Topoisomerase IV. Moreover, the inhibition at 50 µM (at S. aureus DNA gyrase; in experiment [1] (setting [2]); at E. coli DNA gyrase; on E. coli Topoisomerase IV) was 100% in each case.

For `COc1ccc2ncc(=O)n([C@H]3CC[C@H](NCc4cc5c(=O)oc6ccc(F)cc6c5[nH]4)CC3)c2n1` [Compound 201, 8-fluoro-2-({[trans-4-(6-methoxy-3-oxopyrido[2,3-b]pyrazin-4(3H)-yl)cyclohexyl]amino}methyl)[1]benzopyrano[4,3-b]pyrrol-4(1H)-one], the IC50 was 190 nM against S. aureus DNA gyrase, under 100 nM in experiment [1], under 100 nM against E. coli DNA gyrase and under 100 nM on E. coli Topoisomerase IV. In addition, the inhibition at 50 µM (at S. aureus DNA gyrase; in experiment [1]; at E. coli DNA gyrase; at E. coli Topoisomerase IV) was 100% in each case.

As to `O=C1COc2ncc(F)cc2N1[C@H]1CC[C@H](NCc2cc3c(=O)oc4ccc(F)cc4c3[nH]2)CC1` [Compound 193, 8-fluoro-2-({[trans-4-(7-fluoro-2-oxo-2,3-dihydro-1H-pyrido[2,3-b][1,4]oxazin-1-yl)cyclohexyl]amino}methyl)[1]benzopyrano[4,3-b]pyrrol-4(1H)-one], the IC50 worked out at 280 nM at S. aureus DNA gyrase, 2250 nM in experiment [1], 250 nM at E. coli DNA gyrase and 1380 nM at E. coli Topoisomerase IV. Besides, the inhibition at 50 µM on S. aureus DNA gyrase stood at 86%; in experiment [1], 74%; on E. coli DNA gyrase, 77%; at E. coli Topoisomerase IV, 50%.

`O=c1oc2ccc(F)cc2c2[nH]c(CN[C@H]3CC[C@H](n4c(=O)ccc5ncc(F)cc54)CC3)cc12` [Compound 207, 8-fluoro-2-({[trans-4-(7-fluoro-2-oxo-1,5-naphthyridin-1(2H)-yl)cyclohexyl]amino}methyl)[1]benzopyrano[4,3-b]pyrrol-4(1H)-one]: the IC50 (against S. aureus DNA gyrase; in experiment [1]; against E. coli DNA gyrase; on E. coli Topoisomerase IV) was under 100 nM throughout. The inhibition at 50 µM (at S. aureus DNA gyrase; in experiment [1] (setting [2]); at E. coli DNA gyrase; at E. coli Topoisomerase IV) was 100% each time.

On to `O=c1cc(NCC(O)C2CCN(C[C@@H]3Cn4c(=O)ccc5ncc(=O)n3c54)CC2)c2cc(F)ccc2o1` (mixture of isomers) [Compound 343, (2R)-2-[(4-{2-[(6-fluoro-2-oxo-2H-1-benzopyran-4-yl)amino]-1-hydroxyethyl}piperidin-1-yl)methyl]-1,2-dihydro-3H,8H-2a,5,8a-triazaacenaphthylene-3,8-dione], for which the 50% inhibitory concentration (IC50) on S. aureus DNA gyrase amounted to 1980 nM; in experiment [1], 8730 nM; at E. coli DNA gyrase, 910 nM; against E. coli Topoisomerase IV it was 1270 nM.

In the case of `COc1cnc2ncc(=O)n([C@H]3CC[C@@H](NCc4cc5c(=O)oc6ccc(F)cc6c5[nH]4)CC3)c2c1` [Compound 213, 8-fluoro-2-({[cis-4-(7-methoxy-2-oxopyrido[2,3-b]pyrazin-1(2H)-yl)cyclohexyl]amino}methyl)[1]benzopyrano[4,3-b]pyrrol-4(1H)-one], the IC50 against S. aureus DNA gyrase came out at 280 nM; in experiment [1], 580 nM; on E. coli DNA gyrase, 110 nM; on E. coli Topoisomerase IV, 1000 nM. Further, the inhibition at 50 µM on S. aureus DNA gyrase came to 100%; in experiment [1] (setting [2]) it was 84%; on E. coli DNA gyrase it was 98%; at E. coli Topoisomerase IV it was 97%.

As to `COc1ccc2ccc(=O)n(C3CCN(CCc4cc5c(=O)oc6ccc(F)cc6c5[nH]4)CC3)c2n1` [Compound 202, 8-fluoro-2-{2-[4-(7-methoxy-2-oxo-1,8-naphthyridin-1(2H)-yl)piperidin-1-yl]ethyl}[1]benzopyrano[4,3-b]pyrrol-4(1H)-one], the inhibition at 50 µM (at S. aureus DNA gyrase; in experiment [1]; at E. coli DNA gyrase; at E. coli Topoisomerase IV) was 100% in each case.

Consider `O=c1oc2ccccc2c2[nH]c(CNCC3CCN(c4nccc5ccc(F)cc45)C3)cc12` (single isomer, unassigned) [Compound 181, 2-[({[1-(7-fluoroisoquinolin-1-yl)pyrrolidin-3-yl]methyl}amino)methyl][1]benzopyrano[4,3-b]pyrrol-4(1H)-one], for which the entries for the “% inhibition DNA gyrase” value at S. aureus DNA gyrase and on E. coli DNA gyrase were 92% and 53%, respectively. The IC50 against S. aureus DNA gyrase turned out to be 730 nM; in experiment [1], 360 nM; at E. coli DNA gyrase, 440 nM; against E. coli Topoisomerase IV it was 3670 nM. The “% inhibition Topo IV” value worked out at 50% in experiment [1] (setting [2]) and 91% at E. coli Topoisomerase IV.

For the compound `O=c1oc2ccccc2c2[nH]c(CNCC3CN(c4nccc5ccc(F)cc45)CCO3)cc12` (single isomer, unassigned) [Compound 183, 2-[({[4-(7-fluoroisoquinolin-1-yl)morpholin-2-yl]methyl}amino)methyl][1]benzopyrano[4,3-b]pyrrol-4(1H)-one], the “% inhibition DNA gyrase” value on S. aureus DNA gyrase is 84%; at E. coli DNA gyrase, 81%. The IC50 at S. aureus DNA gyrase turned out to be 740 nM; in experiment [1], 190 nM; against E. coli DNA gyrase, 770 nM; on E. coli Topoisomerase IV, 2480 nM. Besides, the “% inhibition Topo IV” value in experiment [1] (setting [2]) was 85%; at E. coli Topoisomerase IV, 77%.

As for `O=C1COc2ncc(F)cc2N1[C@H]1CC[C@H](N(CCO)Cc2cc3c(=O)oc4ccc(F)cc4c3[nH]2)CC1` [Compound 221, 8-fluoro-2-({[trans-4-(7-fluoro-2-oxo-2,3-dihydro-1H-pyrido[2,3-b][1,4]oxazin-1-yl)cyclohexyl](2-hydroxyethyl)amino}methyl)[1]benzopyrano[4,3-b]pyrrol-4(1H)-one], the IC50 against S. aureus DNA gyrase came to 2760 nM; in experiment [1], 2630 nM; against E. coli DNA gyrase it was 920 nM; against E. coli Topoisomerase IV it was 670 nM. Moreover, the inhibition at 50 µM turned out to be 100% on S. aureus DNA gyrase, 100% in experiment [1] (setting [2]), 81% on E. coli DNA gyrase and 50% on E. coli Topoisomerase IV.

With `COc1cnc2ccc(=O)n([C@H]3CC[C@@H](NCc4cc5c(=O)oc6ccc(F)cc6c5[nH]4)CC3)c2c1` [Compound 205, 8-fluoro-2-({[cis-4-(7-methoxy-2-oxo-1,5-naphthyridin-1(2H)-yl)cyclohexyl]amino}methyl)[1]benzopyrano[4,3-b]pyrrol-4(1H)-one], the half-inhibitory concentration (IC50) on S. aureus DNA gyrase turned out to be 170 nM; in experiment [1], 100 nM; against E. coli DNA gyrase, 100 nM; at E. coli Topoisomerase IV it was 310 nM. Further, the inhibition at 50 µM (at S. aureus DNA gyrase; in experiment [1] (setting [2]); at E. coli DNA gyrase; on E. coli Topoisomerase IV) was 100% in each case.

Consider `O=c1nc(NCC(O)CN2CCN(c3nccc4cc[n+]([O-])cc34)CC2)c2cc(F)ccc2o1` (stereo not drawn) [Compound 164, 8-(4-(3-((6-fluoro-2-oxo-2H-benzo[e][1,3]oxazin-4-yl)amino)-2-hydroxypropyl)piperazin-1-yl)-2,7-naphthyridine 2-oxide], for which the IC50 on S. aureus DNA gyrase came out at 1460 nM; in experiment [1], 700 nM; at E. coli DNA gyrase, 3770 nM; at E. coli Topoisomerase IV it was 1780 nM. Moreover, the inhibition at 50 µM (at S. aureus DNA gyrase; in experiment [1]; on E. coli DNA gyrase; on E. coli Topoisomerase IV) was 100% in each case.

For the compound `N#Cc1cnc2c(c1)N([C@H]1CC[C@@H](NCc3cc4c(=O)oc5ccc(F)cc5c4[nH]3)CC1)C(=O)CO2` [Compound 215, 1-(cis-4-{[(8-fluoro-4-oxo-1,4-dihydro[1]benzopyrano[4,3-b]pyrrol-2-yl)methyl]amino}cyclohexyl)-2-oxo-2,3-dihydro-1H-pyrido[2,3-b][1,4]oxazine-7-carbonitrile], the inhibition at 50 µM at S. aureus DNA gyrase was found to be 96%; on E. coli DNA gyrase it was 69%.

Consider `Fc1ccc2ccnc(N3CCC(NCc4c[nH]c(-c5ccccn5)n4)CC3)c2c1` [Compound 160, 1-(7-fluoroisoquinolin-1-yl)-N-{[2-(pyridin-2-yl)-1H-imidazol-4-yl]methyl}piperidin-4-amine], for which the IC50 against S. aureus DNA gyrase amounted to 20800 nM; against E. coli Topoisomerase IV, 21500 nM. The inhibition at 50 µM worked out at 65% on S. aureus DNA gyrase, 50% at E. coli DNA gyrase and 60% on E. coli Topoisomerase IV.
